pEC50: −log10 of the molar value.
Tested on: genotype 1/2 chimeric cell culture derived HCV (HCVcc)
Test: Genotype 1/2 chimeric HCVcc assay (nano-luciferase, HCV replication)
Format: cell-based
Conditions: Hepatitis C virus, Huh7.5, 72 h
Summary of the method: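 EC50 (replication, nano-luciferase) and CC50 (viability, cellular ATP) were determined by non-linear regression 72 h after infection with a reporter HCVcc chimera carrying genotype 1a structural and 2a JFH-1 non-structural proteins. Compound was applied to Huh-7.5 cells 2 h before inoculation.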

SMILES	pEC50
CC1CCc2c(sc(NC(=O)NCc3c(-n4cccc4)sc4c3CCN(C)C4)c2C(=O)OC(C)(C)C)C1 (stereo not drawn) [Compound 210]	> 7.00
CCN1CCc2c(sc(-n3cccc3)c2CNC(=O)Nc2sc3c(c2C(=O)OC(C)(C)C)CCC(C)C3)C1 (stereo not drawn) [Compound 211]	> 7.00
CC1CCc2c(sc(NC(=O)NCc3c(C(F)(F)F)sc4c3CCNC4)c2C(=O)OC(C)(C)C)C1 (stereo not drawn) [Compound 212]	> 7.00
CC1CCc2c(sc(NC(=O)NCc3c(Br)sc4c3CCNC4)c2C(=O)OC(C)(C)C)C1 (stereo not drawn) [Compound 213]	> 7.00
CCOC(=O)c1c(NC(=O)NCc2c(C(F)(F)F)sc(CN(C)C)c2C)sc2c1CCCC2 [Compound 214]	> 7.00
Cc1sc(NC(=O)NCc2c(-n3cccc3)sc3c2CCNC3)c(C(=O)OC(C)C)c1C [Compound 215]	> 7.00
Cc1sc(NC(=O)NCc2c(Br)sc3c2CCNC3)c(C(=O)OC(C)C)c1C [Compound 216]	> 7.00
Cc1sc(NC(=O)NCc2c(C(F)(F)F)sc3c2CCNC3)c(C(=O)OC(C)C)c1C [Compound 217]	> 7.00
CCOC(=O)c1c(NC(=O)NCc2c(Br)sc3c2CCNC3)sc2c1CCC(F)(F)C2 [Compound 218]	> 7.00
CCOC(=O)c1c(NC(=O)NCc2c(C(F)(F)F)sc3c2CCNC3)sc2c1CCC(F)(F)C2 [Compound 219]	> 7.00
O=C(NCc1c(-n2cccc2)sc2c1CCNC2)Nc1sc2c(c1C(=O)OC1CCCC1)CCCC2 [Compound 220]	> 7.00
CN1CCc2c(sc(-n3cccc3)c2CNC(=O)Nc2sc3c(c2C(=O)OC2CCCC2)CCCC3)C1 [Compound 221]	> 7.00
CCN1CCc2c(sc(-n3cccc3)c2CNC(=O)Nc2sc3c(c2C(=O)OC2CCCC2)CCCC3)C1 [Compound 222]	> 7.00
COC(=O)c1c(NC(=O)NCc2c(C(F)(F)F)sc3c2CC[N+](C)(C)C3)sc2c1CCCC2 [Compound 223]	5.00 to 6.00
CC(C)(C)OC(=O)c1c(NC(=O)NCc2c(Br)sc3c2CCNC3)sc2c1CCC2 [Compound 224]	> 7.00
CC(C)(C)OC(=O)c1c(NC(=O)NCc2c(Br)sc3c2CCNC3)sc2c1CCCCC2 [Compound 225]	> 7.00
CC(C)OC(=O)c1c(NC(=O)NCc2c(-c3ccccc3)sc3c2CCNC3)sc2c1CCCC2 [Compound 226]	> 7.00
CC(C)(C)OC(=O)c1c(NC(=O)NCc2c(-c3ccccc3F)sc3c2CCNC3)sc2c1CCCC2 [Compound 227]	6.00 to 7.00
COc1cccc(-c2sc3c(c2CNC(=O)Nc2sc4c(c2C(=O)OC(C)(C)C)CCCC4)CCNC3)c1 [Compound 228]	6.00 to 7.00
CC(C)(C)OC(=O)c1c(NC(=O)NCc2c(-c3cccc(C#N)c3)sc3c2CCNC3)sc2c1CCCC2 [Compound 229]	6.00 to 7.00
CN(C)c1cccc(-c2sc3c(c2CNC(=O)Nc2sc4c(c2C(=O)OC(C)(C)C)CCCC4)CCNC3)c1 [Compound 230]	5.00 to 6.00
CC1CCc2sc(NC(=O)NCc3c(-n4cccc4)sc4c3CCN(C)C4)c(C(=O)OC(C)(C)C)c2C1 (stereo not drawn) [Compound 231]	> 7.00
CCN1CCc2c(sc(-n3cccc3)c2CNC(=O)Nc2sc3c(c2C(=O)OC(C)(C)C)CC(C)CC3)C1 (stereo not drawn) [Compound 232]	> 7.00
CC1CCc2sc(NC(=O)NCc3c(C(F)(F)F)sc4c3CCNC4)c(C(=O)OC(C)(C)C)c2C1 (stereo not drawn) [Compound 233]	> 7.00

SMILES	pEC50
CC1CCc2sc(NC(=O)NCc3c(Br)sc4c3CCNC4)c(C(=O)OC(C)(C)C)c2C1 (stereo not drawn) [Compound 234]	> 7.00
O=C(NCc1c(C(F)(F)F)sc2c1CCNC2)Nc1sc2c(c1C(=O)OC1CCCC1)CCCC2 [Compound 235]	> 7.00
CN1CCc2c(sc(-n3cccc3)c2CNC(=O)Nc2sc3c(c2C(=O)OC(C)(C)C)CCOC3)C1 [Compound 236]	> 7.00
CCN1CCc2c(sc(-n3cccc3)c2CNC(=O)Nc2sc3c(c2C(=O)OC(C)(C)C)CCOC3)C1 [Compound 237]	> 7.00
CC(C)(C)OC(=O)c1c(NC(=O)NCc2c(C(F)(F)F)sc3c2CCNC3)sc2c1CCOC2 [Compound 238]	> 7.00
CC(C)(C)OC(=O)c1c(NC(=O)NCc2c(Br)sc3c2CCNC3)sc2c1CCOC2 [Compound 239]	> 7.00
CC(C)(C)OC(=O)c1c(NC(=O)NCc2c(-n3cccc3)sc3c2CCN(CC(F)(F)F)C3)sc2c1CCCC2 [Compound 240]	> 7.00
CC(C)(C)OC(=O)c1c(NC(=O)NCc2c(-n3cccc3)sc3c2CCN(CCC(F)(F)F)C3)sc2c1CCCC2 [Compound 241]	> 7.00
CC(C)(C)OC(=O)c1c(NC(=O)NCc2c(-n3cccc3)sc3c2CCN(CCF)C3)sc2c1CCCC2 [Compound 242]	> 7.00
CCOC(=O)c1c(NC(=O)NCc2c(-n3cccc3)sc3c2CCCNC3)sc2c1CCCC2 [Compound 243]	> 7.00
CC(C)(C)OC(=O)c1c(NC(=O)NCc2c(C(F)(F)F)sc3c2CCNC3)sc2c1CCC2 [Compound 244]	> 7.00
CC(C)(C)OC(=O)c1c(NC(=O)NCc2c(C(F)(F)F)sc3c2CCNC3)sc2c1CCCCC2 [Compound 245]	> 7.00
CC(C)(C)OC(=O)c1c(NC(=O)NCc2c(-c3cc(F)cc(C(F)(F)F)c3)sc3c2CCNC3)sc2c1CCCC2 [Compound 246]	5.00 to 6.00
CC(C)(C)OC(=O)c1c(NC(=O)NCc2c(-c3cncc(F)c3)sc3c2CCNC3)sc2c1CCCC2 [Compound 248]	> 7.00
CC(C)(C)OC(=O)c1c(NC(=O)NCc2c(-c3ccccc3O)sc3c2CCNC3)sc2c1CCCC2 [Compound 249]	6.00 to 7.00
Cc1ccccc1-c1sc2c(c1CNC(=O)Nc1sc3c(c1C(=O)OC(C)(C)C)CCCC3)CCNC2 [Compound 250]	6.00 to 7.00
Cc1sc(NC(=O)NCc2c(-c3cccc(F)c3)sc3c2CCNC3)c(C(=O)OC(C)C)c1C [Compound 251]	> 7.00
CC(C)(C)OC(=O)c1c(NC(=O)NCc2c(-c3cccc(O)c3)sc3c2CCNC3)sc2c1CCCC2 [Compound 252]	6.00 to 7.00
CCN1CCc2c(sc(-n3cccc3)c2CNC(=O)Nc2sc3c(c2C(=O)NN2CCN(C)CC2)CCCC3)C1 [Compound 253]	6.00 to 7.00
CCN1CCc2c(sc(C(F)(F)F)c2CNC(=O)Nc2sc3c(c2C(=O)OC(C)(C)C)CCC3)C1 [Compound 254]	> 7.00
CC(C)(C)OC(=O)c1c(NC(=O)NCc2c(Br)sc3c2CC[N+](C)(C)C3)sc2c1CCCCC2 [Compound 255]	> 7.00
CC(C)(C)OC(=O)c1c(NC(=O)NCc2c(-c3ccc(O)cc3)sc3c2CCNC3)sc2c1CCCC2 [Compound 256]	6.00 to 7.00
CC(C)(C)OC(=O)c1c(NC(=O)NCc2c(-c3ccc(C(=O)O)cc3)sc3c2CCNC3)sc2c1CCCC2 [Compound 257]	5.00 to 6.00
CC(C)(C)OC(=O)c1c(NC(=O)NCc2c(-n3cccc3)sc3c2CCN(CCO)C3)sc2c1CCCC2 [Compound 258]	> 7.00

SMILES	pEC50
COCCN1CCc2c(sc(-n3cccc3)c2CNC(=O)Nc2sc3c(c2C(=O)OC(C)(C)C)CCCC3)C1 [Compound 259]	> 7.00
CC(C)(C)OC(=O)c1c(NC(=O)NCc2c(-n3cccc3)sc3c2CCN(C2CCC2)C3)sc2c1CCCC2 [Compound 260]	> 7.00
CC(C)(C)OC(=O)c1c(NC(=O)NCc2c(-n3cccc3)sc3c2CCN(C2COC2)C3)sc2c1CCCC2 [Compound 261]	> 7.00
O=C(NCc1c(Br)sc2c1CCNC2)Nc1sc2c(c1C(=O)OC1CCCC1)CCCC2 [Compound 262]	> 7.00
CCN1CCc2c(sc(Br)c2CNC(=O)Nc2sc3c(c2C(=O)OC2CCCC2)CCCC3)C1 [Compound 263]	> 7.00
CCN1CCc2c(sc(Br)c2CNC(=O)Nc2sc(C)c(C)c2C(=O)OC(C)C)C1 [Compound 264]	> 7.00
CC1CCCc2sc(NC(=O)NCc3c(C(F)(F)F)sc4c3CCNC4)c(C(=O)OC(C)(C)C)c21 (stereo not drawn) [Compound 265]	> 7.00
CC1Cc2c(sc(NC(=O)NCc3c(C(F)(F)F)sc4c3CCNC4)c2C(=O)OC(C)(C)C)C(C)C1 (stereo not drawn) [Compound 266]	> 7.00
CC1Cc2c(sc(NC(=O)NCc3c(Br)sc4c3CCNC4)c2C(=O)OC(C)(C)C)C(C)C1 (stereo not drawn) [Compound 267]	> 7.00
CCc1c(C)sc(NC(=O)NCc2c(C(F)(F)F)sc3c2CCNC3)c1C(=O)OC(C)(C)C [Compound 268]	> 7.00
CCc1c(C)sc(NC(=O)NCc2c(-n3cccc3)sc3c2CCNC3)c1C(=O)OC(C)(C)C [Compound 269]	> 7.00
CCc1sc(NC(=O)NCc2c(C(F)(F)F)sc3c2CCNC3)c(C(=O)OC(C)(C)C)c1C [Compound 270]	> 7.00
O=C(NCc1c(Br)sc2c1CCNC2)Nc1sc2c(c1C(=O)OC1CCCCC1)CCCC2 [Compound 271]	> 7.00
O=C(NCc1c(C(F)(F)F)sc2c1CCNC2)Nc1sc2c(c1C(=O)OC1CCCCC1)CCCC2 [Compound 272]	> 7.00
O=C(NCc1c(-n2cccc2)sc2c1CCNC2)Nc1sc2c(c1C(=O)OC1CCCCC1)CCCC2 [Compound 273]	> 7.00
C=CCCOC(=O)c1c(NC(=O)NCc2c(Br)sc3c2CCNC3)sc2c1CCCC2 [Compound 274]	> 7.00
C=CCCOC(=O)c1c(NC(=O)NCc2c(C(F)(F)F)sc3c2CCNC3)sc2c1CCCC2 [Compound 275]	> 7.00
C=CCCOC(=O)c1c(NC(=O)NCc2c(-n3cccc3)sc3c2CCNC3)sc2c1CCCC2 [Compound 276]	> 7.00
CC(C)(C)OC(=O)c1c(NC(=O)NCc2c(-n3cccc3)sc3c2CCNC3)sc2c1CCC2 [Compound 277]	> 7.00
CN1CCc2c(sc(C(F)(F)F)c2CNC(=O)Nc2sc3c(c2C(=O)OC(C)(C)C)CCC3)C1 [Compound 278]	> 7.00
CN1CCc2c(sc(Br)c2CNC(=O)Nc2sc3c(c2C(=O)OC(C)(C)C)CCCCC3)C1 [Compound 279]	> 7.00
CCN1CCc2c(sc(Br)c2CNC(=O)Nc2sc3c(c2C(=O)OC(C)(C)C)CCCCC3)C1 [Compound 280]	> 7.00
CN1CCc2c(sc(C(F)(F)F)c2CNC(=O)Nc2sc3c(c2C(=O)OC(C)(C)C)CCCCC3)C1 [Compound 281]	> 7.00
CC(C)(C)OC(=O)c1c(NC(=O)NCc2c(C3CC3)sc3c2CCNC3)sc2c1CCCC2 [Compound 285]	> 7.00
